Holding throughout (assay type): cell-based
The test system of assay [1] is Streptococcus pyogenes N.Y.5. The assay can be described thus: Minimum inhibitory concentration (MIC), Streptococcus pyogenes N.Y.5.
Assay [2] relates to Staphylococcus aureus MS353AO. The assay can be described thus: Minimum inhibitory concentration (MIC), Staphylococcus aureus MS353AO. As to conditions: macrolide resistant strain A group. From the text: (§1) The minimum inhibitory concentration (MIC) of the compounds of the present invention is illustrated in Table 1.
(§2) *Macrolide registant strain A group (clinical isolates of erythromycin,
(§3) oleandomycin and 16membered macrolide antibiotics registant strains)

Assay [3] has as its system Staphylococcus aureus 0127. The assay can be described thus: Minimum inhibitory concentration (MIC), Staphylococcus aureus 0127.
From the text: as §1, §2, §3

Assay [4] has as its system Staphylococcus aureus 0116. Kind of assay: Minimum inhibitory concentration (MIC), Staphylococcus aureus 0116.
From the text: as §1, §2, §3

Assay [5] relates to Streptococcus pyogenes 1022. The assay can be described thus: Minimum inhibitory concentration (MIC), Streptococcus pyogenes 1022.
From the text: as §1, §2, §3

Assay [6] concerns Staphylococcus aureus 0119. Kind of assay: Minimum inhibitory concentration (MIC), Staphylococcus aureus 0119.
From the text: as §1, §2, §3

In assay [7] the test system is Staphylococcus aureus MS353. Kind of assay: Minimum inhibitory concentration (MIC), Staphylococcus aureus MS353.
The test system of assay [8] is Staphylococcus aureus ATCC6538p. Kind of assay: Minimum inhibitory concentration (MIC), Staphylococcus aureus ATCC6538p.
[9] abbreviates: Staphylococcus aureus 0127, macrolide resistant strain A group, read-out: MIC.
The mark [10] stands for this setting: Staphylococcus aureus 0116, macrolide resistant strain A group, read-out: MIC.
The mark [11] stands for this setting: Streptococcus pyogenes 1022, macrolide resistant strain A group, read-out: MIC.

For four compounds, MIC results are on record in patent US4421911A, “Deoxydesmycosin” (priority 1981, dated 1983).

Molecules are shown by their SMILES. In brackets after ≈: the same amount, converted by molar mass. Read-outs that look alike come from different tables or passages of the source.

As a reminder, the MIC is the lowest concentration found to suppress growth. Regarding `CCC1OC(=O)CC(O)C(C)C(OC2OC(C)CC(N(C)C)C2O)C(CC=O)CC(C)C(=O)/C=C/C(C)=C/C1COC1OC(C)CC(OC)C1OC` (centres unmarked) [R1 = H, R2 = H, 4', 4"-di-deoxy-desmycosin], the MIC is no more than 0.05 µg/mL in assay [1]; 50 µg/mL (≈ 67.6 µM) in assay [2]; 12.5 µg/mL (≈ 16.9 µM) in assay [3] (setting [9]); 3.1 µg/mL (≈ 4.19 µM) in assay [4] (setting [10]); 25 µg/mL (≈ 33.8 µM) in assay [5] (setting [11]); 12.5 µg/mL (≈ 16.9 µM) in assay [6] (Staphylococcus aureus, 0119). The MIC in assay [7] was determined as 0.2 µg/mL (≈ 0.27 µM); in assay [8], 0.4 µg/mL (≈ 0.541 µM).

Regarding `CCC1OC(=O)CC(O)C(C)C(OC2OC(C)CC(N(C)C)C2O)C(CC=O)CC(C)C(=O)/C=C/C(C)=C/C1COC1OC(C)C(O)C(OC)C1OC` (centres unmarked) [R1 = H, R2 = OH, 4'-deoxy-desmycosin], the MIC stood at 0.1 µg/mL (≈ 0.132 µM) in assay [1]; 50 µg/mL (≈ 66.1 µM) in assay [2]; 12.5 µg/mL (≈ 16.5 µM) in assay [3] (setting [9]); 3.1 µg/mL (≈ 4.1 µM) in assay [4] (setting [10]); 3.1 µg/mL (≈ 4.1 µM) in assay [5] (setting [11]); 6.3 µg/mL (≈ 8.33 µM) in assay [6] (Staphylococcus aureus, 0119). Also, the MIC in assay [7] and in assay [8] was 0.8 µg/mL (≈ 1.06 µM) in each case.

Turning to `CCC1OC(=O)CC(O)C(C)C(OC2OC(C)C(O)C(N(C)C)C2O)C(CC=O)CC(C)C(=O)/C=C/C(C)=C/C1COC1OC(C)CC(OC)C1OC` (centres unmarked) [R1 = OH, R2 = H, 4"-deoxy-desmycosin], the minimal inhibitory concentration (MIC) in assay [1] is no more than 0.05 µg/mL; in assay [2] it was 6.3 µg/mL (≈ 8.33 µM); in assay [3] (Staphylococcus aureus, 0127), 6.3 µg/mL (≈ 8.33 µM); in assay [4] (setting [10]), 1.6 µg/mL (≈ 2.12 µM); in assay [5] (setting [11]), 3.1 µg/mL (≈ 4.1 µM); in assay [6] (Staphylococcus aureus 0119, macrolide resistant strain A group, read-out: MIC), 1.6 µg/mL (≈ 2.12 µM). The MIC in assay [7] and in assay [8] was 0.4 µg/mL (≈ 0.529 µM) in each case.

For the compound `CC[C@H]1OC(=O)C[C@@H](O)[C@H](C)[C@@H](O[C@@H]2O[C@H](C)[C@@H](O[C@H]3C[C@@](C)(O)[C@@H](O)[C@H](C)O3)[C@H](N(C)C)[C@H]2O)[C@@H](CC=O)C[C@@H](C)C(=O)/C=C/C(C)=C/[C@@H]1CO[C@@H]1O[C@H](C)[C@@H](O)[C@@H](OC)[C@H]1OC` [Tylosin, tylosin, reference compound], the MIC is 0.2 µg/mL (≈ 0.218 µM) in assay [1]; greater than 100 µg/mL in assay [2]; greater than 100 µg/mL in assay [3] (Staphylococcus aureus, 0127); greater than 100 µg/mL in assay [4] (Staphylococcus aureus, 0116); greater than 100 µg/mL in assay [5] (Streptococcus pyogenes, 1022); greater than 100 µg/mL in assay [6] (Staphylococcus aureus, 0119). The MIC in assay [7] came to 1.6 µg/mL (≈ 1.75 µM); in assay [8], 0.8 µg/mL (≈ 0.873 µM).
